Experimental data: patent US12582640B2, “Treatment of lower respiratory tract infection with tradipitant” (Vanda Pharmaceuticals Inc., priority 2020, dated 2026)

System: severe or critical COVID-19 infection
Test: Randomized, double-blind, placebo-controlled study of tradipitant in hospitalized patients with COVID-19 pneumonia (interim analysis, ITT population)
Assay type: in vivo, human
Parameters: Mortality KM estimate: concentration or dose not given beside the values
Settings: for Mortality hazard ratio (95% CI) / Hazard ratio (95% CI), responder as improvement of 2 or more points / Odds ratio (95% CI), ordinal score at Day 7 / Odds ratio (95% CI), ordinal score at Day 28: tradipitant vs placebo; for Mortality hazard ratio (95% CI) / Hazard ratio (95% CI), responder as improvement of 2 or more points: Cox model; for Odds ratio (95% CI), ordinal score at Day 7 / Odds ratio (95% CI), ordinal score at Day 28: proportional odds model
Text: A randomized, double-blind, placebo-controlled study investigates the efficacy of tradipitant in the treatment of inflammatory lung injury and pneumonia associated with severe or critical COVID-19 infection, and improvement of clinical outcomes associated with severe or critical COVID-19 infection. Such improvements in clinical outcomes include reduction in long term pulmonary function deficits and pulmonary fibrosis.
Methods: Prospective participants attend a screening visit on study day −1 to 0 to assess the prospective patient's eligibility to participate. All enrolled patients are asked to undertake an initial physical examination and must satisfy inclusion and exclusion criteria before being enrolled into the study. A total sample size of 300 patients (150 per arm) provides approximately 93% power to detect a 20% difference of normalization in fever and oxygen saturation, assuming 50% and 70% normalization rates in placebo and tradipitant treatment groups respectively, based on a two-sided Fisher's Exact Test at a 5% significance level.
Inclusion criteria include: adults aged 18-90; confirmed laboratory COVID-19 infection by RT-PCR; confirmed pneumonia by chest radiograph or computed tomography; fever defined as temperature ≥36.6° C. armpit, ≥37.2° C. oral, or ≥37.8° C. rectal; and oxygen saturation of less than 92% on room air OR on mechanical ventilation OR increased work of breathing (WOB) on exam without respiratory support OR respiratory rate greater than 20 per minute. Exclusion criteria include: recent use of illicit drugs or alcohol abuse; known allergy to tradipitant or other neurokinin-1 antagonists; pregnancy; known HIV, HBV, or HCV infection; malignant tumor, other serious systemic diseases; and inability to provide informed consent or to have an authorized relative or designated person provide informed consent, or to comply with the protocol requirements.
Patients who meet the inclusion-exclusion criteria are randomized 1:1 to treatment with either 85 mg tradipitant twice daily (bid) per os (PO, i.e. orally) or matching placebo under double-blind conditions, in addition to standard of care for COVID-19 infection according to protocol at the treating hospital. In both arms, treatment with study medication continues for 14 days or until discharge from the hospital. In both tradipitant treatment and placebo study arms, patients are given one capsule of study medication to be taken orally every day in the morning prior to or at 9:00 am and one capsule of study medication to be taken orally every day in the evening approximately 12 hours later (±1 hour). Patients in the tradipitant treatment arm receive capsules containing 85 mg tradipitant, as well as spray-dried lactose monohydrate, microcrystalline cellulose (Avicel PH102 and PH200), povidone, croscarmellose sodium, sodium lauryl sulfate, and magnesium stearate as excipients. The tradipitant capsules are white opaque, hard gelatin capsules. Placebo capsules are provided in size and appearance identical to those containing tradipitant.
For patients requiring administration via nasogastric tube, the following procedure is used: 1) empty contents of one 85 mg capsule in a glass mortar and grind using a pestle until all granules are thoroughly crushed; 2) add 10 mL of water while continuing to grind to obtain a uniform dispersion; 3) draw up entire dispersion into a suitable syringe; 4) connect syringe tip to nasogastric tube and push entire syringe contents; and 5) rinse mortar and pestle with 5 mL of water and repeat steps 3) and 4). The crushing procedure results in the preparation of a uniform dispersion in water, which can then be administered through a nasogastric tube without clogging.
Patient assessments are performed in accordance with the schedule of evaluations detailed in Table 1 below.
Mortality is assessed as the proportion of participants with in-hospital mortality, and is evaluated per treatment arm. […]

[1] = Day 7, baseline ordinal score 3
[2] = Day 7, baseline ordinal score 4
[3] = Day 28, baseline ordinal score 2
[4] = Day 28, baseline ordinal score 3
[5] = Day 28, baseline ordinal score 4
[6] = ITT overall, >1 benefit for tradipitant
[7] = baseline ordinal score 2 (N = 4)
[8] = baseline ordinal score 3 (N = 13)
[9] = baseline ordinal score 4 (N = 9)
[10] = tradipitant arm, 85 mg bid PO plus standard of care, interim analysis

In the case of O=C(c1ccccc1Cl)c1cccnc1-c1nnn(Cc2cc(C(F)(F)F)cc(C(F)(F)F)c2)c1-c1ccncc1 [Tradipitant, {2-[1-(3,5-bistrifluoromethylbenzyl)-5-pyridin-4-yl-1H-[1,2,3]triazol-4-yl]-pyridin-3-yl}-(2-chlorophenyl)-methanone], the “Mortality KM estimate” value (Day 7, ITT overall) is reported as 9.8%, the “No. of responders (improvement of 2 or more points)” value (shortened to “No. of responders”) (Day 7, ITT overall (N = 28)) is reported as 13 and the “Mortality hazard ratio (95% CI)” value (Day 7, ITT overall, <1 benefit for tradipitant) is reported as 2.65. The “Mortality KM estimate” value (Day 7, baseline ordinal score 2) was 25.0%, the “No. of responders” value (Day 7, baseline ordinal score 2 (N = 4)) was 3 and the “Mortality KM estimate” value [1] was 0.0%. For the same compound, the “No. of responders” value (Day 7, baseline ordinal score 3 (N = 13)) was 2, the “Hazard ratio (95% CI), responder as improvement of 2 or more points” value (“Hazard ratio (95% CI), responder” below) [1] was 2.19 and the “Mortality KM estimate” value [2] was 25.0%. For the same compound, the “No. of responders” value (Day 7, baseline ordinal score 4 (N = 9)) was 6, the “Hazard ratio (95% CI), responder” value [2] was 2.23 and the “Mortality hazard ratio (95% CI)” value [2] was 3.14. For the same compound, the “Mortality KM estimate” value (Day 28, ITT overall) was 20.4%, the “No. of responders” value (Day 28, ITT overall (N = 28)) was 16 and the “Mortality hazard ratio (95% CI)” value (Day 28, ITT overall, <1 benefit for tradipitant) was 1.03. The “Mortality KM estimate” value [3] was 50.0%, the “No. of responders” value (Day 28, baseline ordinal score 2 (N = 4)) was 3 and the “Mortality hazard ratio (95% CI)” value [3] was 1.84. The “Mortality KM estimate” value [4] was 9.1%, the “No. of responders” value (Day 28, baseline ordinal score 3 (N = 13)) was 4 and the “Hazard ratio (95% CI), responder” value [4] was 1.08. For the same compound, the “Mortality hazard ratio (95% CI)” value [4] was 0.95, the “Mortality KM estimate” value [5] was 25.0% and the “No. of responders” value (Day 28, baseline ordinal score 4 (N = 9)) was 7. The “Hazard ratio (95% CI), responder” value [5] was 1.59, the “Mortality hazard ratio (95% CI)” value [5] was 1.24 and the “Median time to responder (95% CI)” value (Day 28 analysis, ITT overall (N = 28), listed as tradipitant) was 10 days. For the same compound, the “No. of deaths by day 7” value (ITT overall (N = 28)) was 2, the “No. of deaths by day 28” value (ITT overall (N = 28)) was 4 and the “Odds ratio (95% CI), ordinal score at Day 7” value (from here on “Odds ratio (95% CI) … at Day 7”) [6] was 1.05. The “Odds ratio (95% CI), ordinal score at Day 28” value [6] was 1.01, the “No. of deaths by day 7” value [7] was 1 and the “No. of deaths by day 28” value [7] was 2. For the same compound, the “Odds ratio (95% CI) … at Day 7” value (baseline ordinal score 2) was 0.43, the “Odds ratio (95% CI), ordinal score at Day 28” value (baseline ordinal score 2) was 0.43 and the “No. of deaths by day 7” value [8] was 0. The “No. of deaths by day 28” value [8] was 1, the “Odds ratio (95% CI) … at Day 7” value (baseline ordinal score 3) was 2.69 and the “Odds ratio (95% CI), ordinal score at Day 28” value (baseline ordinal score 3) was 2.21. The “No. of deaths by day 7” value [9] was 1, the “No. of deaths by day 28” value [9] was 1 and the “Odds ratio (95% CI) … at Day 7” value (baseline ordinal score 4) was 0.40. For the same compound, the “Odds ratio (95% CI), ordinal score at Day 28” value (baseline ordinal score 4) was 0.62, the mortality rate [10] was 14.2% and the “patients showing clinical improvement (at least a 2 point improvement in the 7 point ordinal scale)” value [10] was 57%.
